Test results published in patent publication US20140263071A1, “METHOD FOR COLLECTING METALS” (CHEMEC OY AB, priority 2011, published 2014).

Experiment: Effect of temperature on expulsion percent, Pb^2+ spiked TS 5, 1a 1.0 g/100 ml, 24 h (Example 12)
Protocol: A test solution containing 1-15 mg/l of Al^3+, Fe^2/3+, Mg^2+, Mn^2+, Ni^2+ and Zn^2+; 0.1-0.9 mg/l of Ca^2+ and Na^+; and trace amount of other Cr^3+, Co^2+, Cu^2+, Eu^3+, La^3+, Nd^3+, Y^3+, UO2^2+ and Nb^5+ cations were prepared.
Effect of temperature to selected metal expulsion per cents was tested using TS 5 with comlexation agent 1a. TS 5 (100 ml), spiked with known amounts of lead (Pb^2+) cations, was stirred with 1a (1.0 g) at selected temperature for 24 h followed by separation of 1a by filtration trough 0.2 μm syringe filter. Metal concentrations at 4° C., 7° C., 22° C., 30° C., 40° C. and 50° C. were determined by using ICP-AES analysis.

NCCCCCCCCCCC(O)(P(=O)(O)O)P(=O)(O)O [Compound 1a, 11-Amino-1-hydroxyundecane-1,1-diyldiphosphonic acid]
Expulsion [%] (Al^3+, 4° C.): 6.3%
Expulsion [%] (Al^3+, 7° C.): 15.4%
Expulsion [%] (Al^3+, 22° C.): 18.5%
Expulsion [%] (Al^3+, 30° C.): 14.6%
Expulsion [%] (Al^3+, 40° C.): 98.0%
Expulsion [%] (Al^3+, 50° C.): 97.6%
Expulsion [%] (Ca^2+, 4° C.): 0.0%
Expulsion [%] (Ca^2+, 7° C.): 0.0%
Expulsion [%] (Ca^2+, 22° C.): 9.4%
Expulsion [%] (Ca^2+, 30° C.): 10.0%
Expulsion [%] (Ca^2+, 40° C.): 63.5%
Expulsion [%] (Ca^2+, 50° C.): 71.2%
Expulsion [%] (Cd^2+, 4° C.): 16.1%
Expulsion [%] (Cd^2+, 7° C.): 18.3%
Expulsion [%] (Cd^2+, 22° C.): 34.5%
Expulsion [%] (Cd^2+, 30° C.): 41.3%
Expulsion [%] (Cd^2+, 40° C.): 99.0%
Expulsion [%] (Cd^2+, 50° C.): 98.9%
Expulsion [%] (Fe^2/3+, 4° C.): 0.0%
Expulsion [%] (Fe^2/3+, 7° C.): 0.7%
Expulsion [%] (Fe^2/3+, 22° C.): 5.2%
Expulsion [%] (Fe^2/3+, 30° C.): 4.4%
Expulsion [%] (Fe^2/3+, 40° C.): 99.3%
Expulsion [%] (Fe^2/3+, 50° C.): ≥ 99.3^1%
Expulsion [%] (Mg^2+, 4° C.): 0.7%
Expulsion [%] (Mg^2+, 7° C.): 0.7%
Expulsion [%] (Mg^2+, 22° C.): 7.1%
Expulsion [%] (Mg^2+, 30° C.): 5.5%
Expulsion [%] (Mg^2+, 40° C.): ≥ 97.7^1%
Expulsion [%] (Mg^2+, 50° C.): ≥ 97.7^1%
Expulsion [%] (Mn^2+, 4° C.): 4.6%
Expulsion [%] (Mn^2+, 7° C.): 5.3%
Expulsion [%] (Mn^2+, 22° C.): 14.7%
Expulsion [%] (Mn^2+, 30° C.): 13.3%
Expulsion [%] (Mn^2+, 40° C.): ≥ 99.7^1%
Expulsion [%] (Mn^2+, 50° C.): ≥ 99.7^1%
Expulsion [%] (Ni^2+, 4° C.): 0.9%
Expulsion [%] (Ni^2+, 7° C.): 1.4%
Expulsion [%] (Ni^2+, 22° C.): 4.6%
Expulsion [%] (Ni^2+, 30° C.): 4.6%
Expulsion [%] (Ni^2+, 40° C.): 97.1%
Expulsion [%] (Ni^2+, 50° C.): 95.2%
Expulsion [%] (Pb^2+, 4° C.): ≥ 98.1^1%
Expulsion [%] (Pb^2+, 7° C.): ≥ 98.1^1%
Expulsion [%] (Pb^2+, 22° C.): ≥ 98.1^1%
Expulsion [%] (Pb^2+, 30° C.): ≥ 98.1^1%
Expulsion [%] (Pb^2+, 40° C.): ≥ 98.1^1%
Expulsion [%] (Pb^2+, 50° C.): ≥ 98.1^1%
Expulsion [%] (Zn^2+, 4° C.): 9.0%
Expulsion [%] (Zn^2+, 7° C.): 10.4%
Expulsion [%] (Zn^2+, 22° C.): 22.9%
Expulsion [%] (Zn^2+, 30° C.): 25.7%
Expulsion [%] (Zn^2+, 40° C.): 97.6%
Expulsion [%] (Zn^2+, 50° C.): 98.0%
